In PMC5079764 (Bioorganic & medicinal chemistry, 2016):

Key:
[1] = biological target: T1, 5-HT2B receptor (Homo sapiens, UniProt P41595); settings: Table 1; cited from earlier work
[2] = biological target: T2, 5-HT2C receptor (Homo sapiens, UniProt P28335); settings: Table 1; cited from earlier work
T2 sequence (P28335 33-458): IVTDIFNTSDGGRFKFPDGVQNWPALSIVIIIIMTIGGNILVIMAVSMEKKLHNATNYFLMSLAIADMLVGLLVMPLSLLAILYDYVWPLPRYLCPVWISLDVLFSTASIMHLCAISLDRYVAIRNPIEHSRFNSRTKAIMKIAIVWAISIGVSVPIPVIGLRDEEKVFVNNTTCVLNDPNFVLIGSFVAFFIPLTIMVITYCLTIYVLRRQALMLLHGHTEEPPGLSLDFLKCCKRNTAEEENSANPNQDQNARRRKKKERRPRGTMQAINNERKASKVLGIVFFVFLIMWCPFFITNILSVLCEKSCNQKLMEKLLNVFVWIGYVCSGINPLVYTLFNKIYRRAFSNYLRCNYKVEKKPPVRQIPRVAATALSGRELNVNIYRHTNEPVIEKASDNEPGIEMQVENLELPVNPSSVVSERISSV

[3] = biological target: 5-HT7 receptor (Homo sapiens, UniProt P34969); settings: Table 1; cited from earlier work
[4] = biological target: T3, 5-HT1A receptor (Homo sapiens, UniProt P08908); settings: Table 1, cited from earlier work
T3 sequence (P08908 1-422): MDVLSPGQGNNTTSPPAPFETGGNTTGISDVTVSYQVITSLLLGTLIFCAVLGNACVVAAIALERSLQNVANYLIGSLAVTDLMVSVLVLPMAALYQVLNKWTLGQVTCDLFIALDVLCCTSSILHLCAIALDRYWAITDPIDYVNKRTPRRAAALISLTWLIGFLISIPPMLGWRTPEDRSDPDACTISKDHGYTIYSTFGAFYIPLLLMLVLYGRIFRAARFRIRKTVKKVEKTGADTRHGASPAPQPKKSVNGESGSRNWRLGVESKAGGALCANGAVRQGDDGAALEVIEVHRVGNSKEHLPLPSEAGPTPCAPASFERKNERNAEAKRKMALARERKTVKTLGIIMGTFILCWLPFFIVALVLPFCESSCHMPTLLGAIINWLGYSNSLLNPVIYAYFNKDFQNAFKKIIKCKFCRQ

[5] = biological target: H1 receptor (Homo sapiens, UniProt P35367); settings: Table 1; cited from earlier work
[6] = biological target: T4, D4 receptor (Homo sapiens, UniProt P21917); settings: Table 1; cited from earlier work
T4 sequence (P21917 1-419): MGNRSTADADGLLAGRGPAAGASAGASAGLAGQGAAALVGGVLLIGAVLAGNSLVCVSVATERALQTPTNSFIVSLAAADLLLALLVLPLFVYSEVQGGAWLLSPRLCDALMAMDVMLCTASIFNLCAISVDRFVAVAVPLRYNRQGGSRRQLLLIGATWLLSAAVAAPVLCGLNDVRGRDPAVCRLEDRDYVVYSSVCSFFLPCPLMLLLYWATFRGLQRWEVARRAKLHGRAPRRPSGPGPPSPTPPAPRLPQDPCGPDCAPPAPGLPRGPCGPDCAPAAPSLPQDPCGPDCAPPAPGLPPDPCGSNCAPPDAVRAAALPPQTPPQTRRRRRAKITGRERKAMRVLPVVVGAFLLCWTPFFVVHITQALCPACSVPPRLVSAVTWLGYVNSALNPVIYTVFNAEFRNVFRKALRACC

[7] = biological target: 5-HT2A receptor (Homo sapiens, UniProt P28223); settings: Table 1; cited from earlier work
[8] = biological target: T5, D2 receptor (Homo sapiens, UniProt P14416); settings: Table 1; cited from earlier work
[9] = biological target: T5, D2 receptor; test: NIMH-PDSP receptor binding affinity, D2; settings: Table 1; MTA = Missed 50% of threshold inhibition
[10] = biological target: T1, 5-HT2B receptor; test: NIMH-PDSP receptor binding affinity, 5-HT2B; settings: Table 1; MTA = Missed 50% of threshold inhibition

T5 sequence (P14416 whole entry): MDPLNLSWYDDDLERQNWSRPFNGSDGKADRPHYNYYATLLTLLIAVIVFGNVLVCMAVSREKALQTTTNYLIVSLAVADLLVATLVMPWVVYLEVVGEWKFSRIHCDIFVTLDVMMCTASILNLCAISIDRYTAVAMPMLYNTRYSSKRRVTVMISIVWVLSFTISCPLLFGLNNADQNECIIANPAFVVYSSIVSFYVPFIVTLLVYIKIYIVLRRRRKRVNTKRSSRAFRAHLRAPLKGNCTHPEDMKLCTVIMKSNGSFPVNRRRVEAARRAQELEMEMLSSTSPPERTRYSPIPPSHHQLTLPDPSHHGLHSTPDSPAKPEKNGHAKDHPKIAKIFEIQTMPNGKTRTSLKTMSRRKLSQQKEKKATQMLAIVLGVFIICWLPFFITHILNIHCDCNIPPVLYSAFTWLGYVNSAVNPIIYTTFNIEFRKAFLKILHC
T1 sequence (P41595 whole entry): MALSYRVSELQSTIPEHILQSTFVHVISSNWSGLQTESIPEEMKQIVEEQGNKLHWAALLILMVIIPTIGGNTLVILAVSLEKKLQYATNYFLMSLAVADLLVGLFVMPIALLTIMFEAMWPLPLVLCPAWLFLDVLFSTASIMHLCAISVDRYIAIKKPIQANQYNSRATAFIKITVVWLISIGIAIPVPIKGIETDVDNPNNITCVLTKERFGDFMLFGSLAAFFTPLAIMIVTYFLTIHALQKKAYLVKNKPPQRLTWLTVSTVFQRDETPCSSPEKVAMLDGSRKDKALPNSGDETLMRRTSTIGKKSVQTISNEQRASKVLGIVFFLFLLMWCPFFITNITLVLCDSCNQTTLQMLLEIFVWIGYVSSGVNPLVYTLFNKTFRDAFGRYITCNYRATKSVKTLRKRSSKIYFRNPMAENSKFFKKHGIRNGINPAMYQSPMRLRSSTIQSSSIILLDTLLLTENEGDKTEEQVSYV
5-HT7 receptor, sequence (P34969 whole entry): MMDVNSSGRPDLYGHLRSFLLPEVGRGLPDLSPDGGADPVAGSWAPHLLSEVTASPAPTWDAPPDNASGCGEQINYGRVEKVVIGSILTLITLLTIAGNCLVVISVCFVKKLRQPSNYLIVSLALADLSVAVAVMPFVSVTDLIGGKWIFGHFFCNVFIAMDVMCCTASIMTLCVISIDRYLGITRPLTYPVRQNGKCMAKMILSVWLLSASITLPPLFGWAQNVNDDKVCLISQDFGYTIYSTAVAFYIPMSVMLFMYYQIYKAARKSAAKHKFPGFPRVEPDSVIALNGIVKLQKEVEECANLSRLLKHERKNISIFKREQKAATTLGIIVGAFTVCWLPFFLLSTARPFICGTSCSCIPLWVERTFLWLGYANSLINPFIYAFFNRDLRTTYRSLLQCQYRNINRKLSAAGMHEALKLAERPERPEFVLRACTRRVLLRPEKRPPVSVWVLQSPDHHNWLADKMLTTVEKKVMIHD
5-HT2A receptor, sequence (P28223 whole entry): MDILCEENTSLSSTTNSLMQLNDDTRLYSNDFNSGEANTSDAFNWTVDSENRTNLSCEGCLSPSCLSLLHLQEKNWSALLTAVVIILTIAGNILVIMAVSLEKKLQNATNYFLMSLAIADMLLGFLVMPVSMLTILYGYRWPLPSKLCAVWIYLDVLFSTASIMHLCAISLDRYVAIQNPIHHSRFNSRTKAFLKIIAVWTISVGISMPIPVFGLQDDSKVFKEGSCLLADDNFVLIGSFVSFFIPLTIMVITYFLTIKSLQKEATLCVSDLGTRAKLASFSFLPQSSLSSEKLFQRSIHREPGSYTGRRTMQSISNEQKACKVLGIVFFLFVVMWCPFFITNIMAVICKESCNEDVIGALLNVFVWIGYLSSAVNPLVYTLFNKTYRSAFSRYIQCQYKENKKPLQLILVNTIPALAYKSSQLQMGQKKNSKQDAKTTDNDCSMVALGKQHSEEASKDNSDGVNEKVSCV
H1 receptor, sequence (P35367 whole entry): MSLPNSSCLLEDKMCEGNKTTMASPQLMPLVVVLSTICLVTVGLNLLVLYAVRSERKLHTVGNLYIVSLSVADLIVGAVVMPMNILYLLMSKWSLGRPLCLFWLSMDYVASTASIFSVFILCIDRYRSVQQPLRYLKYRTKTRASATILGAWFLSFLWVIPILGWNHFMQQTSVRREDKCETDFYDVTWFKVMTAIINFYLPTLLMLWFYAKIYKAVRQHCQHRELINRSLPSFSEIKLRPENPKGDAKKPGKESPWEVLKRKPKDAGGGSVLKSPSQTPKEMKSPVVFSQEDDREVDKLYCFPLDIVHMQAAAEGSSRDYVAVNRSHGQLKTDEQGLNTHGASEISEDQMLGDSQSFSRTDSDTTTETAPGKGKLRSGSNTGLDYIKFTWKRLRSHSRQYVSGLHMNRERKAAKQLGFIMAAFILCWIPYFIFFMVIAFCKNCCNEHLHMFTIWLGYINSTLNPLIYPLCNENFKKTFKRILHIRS

## c1ccc2c(c1)CCN(CCCCc1nc3ccccc3s1)C2 [Compound 1a, 2-(4-(3,4-Dihydroisoquinolin-2(1H)-yl)butyl)benzo[d]thiazole]
[1]
  pKi±SEM 5-HT2B: 7.74±0.05
[2]
  pKi±SEM 5-HT2C: 6.04±0.04
[3]
  pKi±SEM 5-HT7: 7.66±0.06
[4]
  pKi±SEM 5-HT1A: 8±0.03
[4]; read-out: Ki (nM) 5-HT1A, MTA = Missed 50% of threshold inhibition
  Ki: 10 nM
[5]
  pKi±SEM H1: 6.23±0.08
[6]
  pKi±SEM D4: 7.17±0.05
[7]
  pKi±SEM 5-HT2A: 5.77±0.06
[8]
  pKi±SEM D2: 6.78±0.09

## Br.c1ccc2c(c1)CCN(CCCc1nc3ccccc3s1)C2 [Compound 1b, 2-(3-(3,4-Dihydroisoquinolin-2(1H)-yl)propyl)benzo[d]thiazole hydrobromide]
[9]
  Ki (nM) D2: MTA

## Cl.Cl.c1ccc2c(c1)CCN(CCCc1nc3ccccc3[nH]1)C2 [Compound 1d, 2-(3-(1H-benzo[d]imidazol-2-yl)propyl)-1,2,3,4-tetrahydroisoquinoline]
[10]
  Ki (nM) 5-HT2B: MTA
